Patent US20030215888A1, “Androgen receptor overexpressing skeletal myoblasts” (Pfizer Inc., priority 2002, published 2003)

Test system: C2hAR57 cells
Experiment: [3H]-thymidine uptake assay, C2hAR57 cells
Assay type: cell-based, mouse
Details: 48 hours exposure
Experimental: After 48 hours exposure to the test agents, medium containing 0.1 μCi [^3H]-thymidine (82 Ci/mmol, Amersham, Buckinghamshire, UK) per well was added and incubation was continued for two additional hours at 37° C. The assay was terminated by aspirating the culture medium and washing with ice-cold phosphate buffered saline followed by 5% trichloroacetic acid. The cells where then lysed by applying 0.3 N NaOH (75 μl per well) followed by 0.3 N HCl (75 μl per well) to neutralize the NaOH. The radioactivity in 50-μl aliquots was determined by liquid scintillation counting in 96-well plates (Packard Instrument Corporation) using a TopCount™ Scintillation Counter (Packard Instrument Corporation).

## C[C@]12CCC(=O)C[C@@H]1CC[C@@H]1[C@@H]2CC[C@]2(C)[C@@H](O)CC[C@@H]12 [DHT, dihydrotestosterone]
  effect on [3H]-thymidine uptake: dose-dependent inhibitory effects
